Each molecule was assayed against T1, human hcp SH2 domain (Homo sapiens, UniProt P29350) (assay: SH2 domain / pY peptide binding assay (ELISA-based, 96 well plate), hcp SH2). Conditions: cloned human SH2 domain fusion protein; 0.1 uM biotinylated pY peptide; Table I; read-out: Hcp (IC50).
T1 sequence (P29350 4-100): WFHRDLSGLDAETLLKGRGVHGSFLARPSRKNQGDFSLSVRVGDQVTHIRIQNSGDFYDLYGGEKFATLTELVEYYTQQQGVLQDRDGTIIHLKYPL
Description: The inhibitory activity of compounds at the different human SH2 domains was determined in vitro using SH2 domains expressed as fusion proteins in E. coli. The SH2 domains used herein were the human forms of the src SH2 domain, Grb2 SH2 domain, lck SH2 domain, fyn SH2 domain, SH-PTP2 SH2 domain, p85 SH2 domain and hcp SH2 domain.
The fusion proteins containing the src, lck and hcp SH2 domains were expressed as the general sequence: DET1-DET2-spacer-ek-SH2, where DETI, DET2, spacer, ek and SH2 are as described below. DET1 ("defined epitope tag 1") (SEQ ID NO: 1) is an 11 amino acid sequence found in the Human Immunodeficiency Virus Type 1 (HIV-1) envelope protein gp120 (or gp160). Monoclonal antibodies to various epitopes of HIV-1 gp120 (or gp160) are known in the art, see, for example U.S. Patent 5,166,050. One preferred example is monoclonal antibody 178.1 (see, e.g., Thiriart et al., J. Immunol., 143:1832-1836 (1989)), which was prepared by immunization of mice with a yeast-expressed HIV-1 gp160 molecule from strain BH10 (Ratner et al., Nature, 313:277-284 (1985)). This tag was used for detection of expression (by Western blot), for purification of the protein (by affinity chromatography), and for configuring assays in which the fusion protein was captured or immobilized using the 178.1 antibody. DET2 is a hexahistidine sequence tag (SEQ ID NO: 2) which binds to nickel-containing resins and was used for purification purposes. Spacer (SEQ ID NO: 3) was utilized to design a BamH1 restriction site at the indicated position of the construct. The term -ekrefers to a recognition sequence (SEQ ID NO: 4) for the enterokinase protease which provides for the optional removal of the tags from the SH2 domain, thus producing an SH2 domain that contains no extraneous amino acids. SH2 domains which contain no extraneous amino acids are preferable to tagged protein for crystallography studies. SH2 refers to the SH2 domains of different proteins.
Cloning and expression of human hcp SH2 domain containing tags and an enterokinase proteolytic cleavage site (DET1-DET2-spacer-ek-hcp SH2).
A DNA sequence encoding protein ek-hcp SH2 was reverse transcriptase-PCR amplified from human fetal liver RNA. RNA isolation used Tri-Reagent (Molecular Research Center Inc.) and the Reverse Transcriptase system (GIBCO-BRL) according to the manufacture's instructions. PCR was carried out using the following primers: [formula]
The PCR product was digested with BglII and XbaI, followed by isolation of the digested fragment on an agarose gel. The fragment was ligated into BamHI-XbaI-digested expression vector containing the tagged human src gene DET1-DET2-spacer-ek-src SH2 described in Procedure 2 above. In that vector, the BamHI site is located in between the coding regions for DET2 and ek, and the XbaI site is located after the 3' end of the SH2 coding region. Thus, the ek-hcp SH2 sequence replaced the ek-src SH2 sequence in the above vector. The ligation reaction was used to transform E. coli MM294cI^+. The construct containing DET1-DET2-spacer-ek-hcp SH2 was confirmed by DNA sequencing (SEQ ID NO: 7) and used to transform E. coli GI698 (Invitrogen Corporation, San Diego, CA). Induction of the phage lambda promoter was induced by addition of tryptophan to the culture medium to 10 mg/ml, per the manufacture's instructions. A Coomassie-Blue-stained, Western-blot-positive induced protein band with an apparent molecular weight of 15,000 was observed after tryptophan induction of cells growing at 30° C.
Cells were lysed at neutral pH by sonication in the presance of lysozyme. After centrifugation, the insoluble pellet was solubilized with 8 M urea in Tris buffer pH 8 and bound onto a Ni^++NTA column. The resin was washed with equilibration buffer (Tris buffer pH 8 containing 0.5 M NaCl, 8 M urea and 5 mM BME) and the same buffer containing 15 mM imidazole. […]
In the case of “4-acetamido-benzamido-trans-4-methyl-cyclohexyl-N-1-(amino-R-2-(methoxy methyl)-pyrrolidine) carboxamide [Compound 8]”, the IC50 is reported as > 100000 nM. Work on Cc1nc2sc3c(c2c2[nH][nH]c(=O)c12)CCC1(C3)OCCO1 [Compound 3, 8,8-Ethylenedioxy-2,3,7,8,9,10-hexahydro-4-methyl-1H-benzo[b]thieno[2,3-b]pyrazolo[3,4-d]pyridin-3-one] yielded an IC50 of 1200 nM. Cc1ccc(C(=O)c2ccc(C(=O)c3ccc(CC=O)cc3)cc2)cc1 [Compound 4, 4-[4-(4-Methylbenzoyl)benzoyl]phenylacetaldehyde] gave an IC50 of 30000 nM. Molecule Cc1nc2sc3c(c2c2c1c(=O)[nH]n2C)CCC1(C3)OCCO1 [Compound 5, 1,4-Dimethyl-8,8-ethylenedioxy-2,3,7,8,9,10-hexahydro-1H-benzo[b]thieno[2,3-b]pyrazolo[3,4-d]pyridin-3-one] has an IC50 of 100 nM. With CCCCCCNC(=O)[C@H]1CC[C@H](CNC(=O)c2ccc([N+](=O)[O-])cc2)CC1 [Compound 7, 4-nitro-benzamido-trans-4-methyl-cyclohexyl-N-hexyl carboxamide] the IC50 was > 300000 nM. Molecule CCCNC(=O)[C@H]1CC[C@H](CNC(=O)/C=C/c2ccc(C=O)cc2)CC1 [Compound 9, 4-formyl-E-cinnamido-trans-4-methyl-cyclohexyl-N-(propyl) carboxamide] has an IC50 of 12000 nM. Cc1nc2sc3c(c2c2[nH][nH]c(=O)c12)CCCC3 [Compound 10, 2,3,7,8,9,10-Hexahydro-4-methyl-1H-benzo[b]thieno[2,3-b]pyrazolo[3,4-d]pyridin-3-one] gave an IC50 of 1200 nM.

Same assay, conditions: read-out: Hcp (IC50); cloned human SH2 domain fusion protein; 0.1 uM biotinylated pY peptide; Table I
In the case of N[C@@H](Cc1cc(Br)c(Oc2ccc(O)c(Cc3ccc(O)nn3)c2)c(Br)c1)C(=O)O [Compound 2, L-3,5-Dibromo-3'-(6-oxo-3(1H)-pyridazinylmethyl)-thyronine], the IC50 is reported as 900 nM.

Source: EP0727211A1, “Use of src SH2 specific compounds to treat a bone resorption disease” (SMITHKLINE BEECHAM CORPORATION, priority 1995, dated 1996)
